Results: patent publication US7745493B2, “Methods of treating tardive dyskinesia and other movement disorders” (priority 1998, dated 2010)

Tests used:
[1] = system: person two with long-standing TD; experiment: Simple Reaction Time (neuropsychological test, Case 1); format: in vivo, human; settings: lower score better
Protocol: On acamprosate, the patient was able to sustain concentration for prolonged periods. […] The patient's cognitive improvement was also assessed using formal neuropsychological measures. The patient was tested while on the drug, then taken off of the drug and tested two days later. On the drug, the patient was able to recall 13 of the 15 items after a short delay as well as 13 of the 15 items after a long delay, as measured by the Rey Auditory Verbal Learning Test. This was in comparison to the patient's ability while off the drug to recall only 7 of the 15 items after a short delay as well as 8 of the items after a long delay in tests performed. In addition, the patient was able to recognize all 15 of the items while on acamprosate but while off the drug (and while having been off of memantine for over 2 months) the patient could only recognize 10 of the items. The order of testing would give the advantage of familiarity to the off-drug condition. Nonetheless, the difference in favor of the on-drug condition was substantial.
(§1) The tests showing such results included Simple Reaction Time, the Trail Making Test (both parts) and the Paced Auditory Serial Addition Test (PASAT). Choice reaction time, a test requiring both basic attention and concentration on a specific task that must be kept in mind, was slightly better on acamprosate, consistent with the hypothesis that general cognitive function, as opposed to simple attention, improves with acamprosate treatment.
(§2) The following tables report on the results of the neuropsychological tests (Drug I is memantine and Drug II is acamprosate): […]

[2] = system: person two with long-standing TD; experiment: Trail Making Test, Trails B (Case 1); format: in vivo, human; settings: ON drug; for Trails B Seconds: lower score better
Description: as §1, §2

[3] = system: person one with long-standing TD; experiment: Case Report 2: clinical observation of TD; format: in vivo, human; settings: Case 2; for effect on involuntary movements of TD: acamprosate 666 mg three times daily added to memantine, magnesium oxide 250 mg three times a day added to acamprosate; for cognitive symptoms / memory: subjective
Description: person one had long-standing TD following decades of treatment with the neuroleptic drug perphenazine. Their involuntary movements comprised bilateral chorea of the upper extremities, plus writhing of the tongue and tongue-biting. Both of the latter movements led to a very sore tongue. In addition, the patient experienced impairment of their short-term memory, which was attributed primarily to cerebrovascular disease.
They also continued to have a sore tongue. […] In addition to memantine, the patient regularly took antiepileptic drugs (gabapentin and lamotrigine), antiplatelet agents (aspirin and ticlopidine), as well as medications for hypertension, glaucoma and gastrointestinal symptoms (isosorbide mononitrate, metoprolol, timolol eye drops and olsalazine).
The patient was placed on a treatment regime that included administration of 666 mg of acamprosate, three times daily. In this case, acamprosate was added to the patient's regimen, which continued to include memantine. […] Despite past evidence from formal testing that the patient had impaired short-term memory, they performed normally on a two-sentence memory task, which involved testing the patient's recall ability using two sentences containing 13 separate details. On the two-sentence memory task, within three attempts the patient was able to recall 9 details and, using a multiple choice format, was able to recall a total of 11 details. Recall of 9 details on the third attempt would be normal for a middle-aged adult, let alone one […].
After a full year on memantine and acamprosate, the memantine was discontinued, with little change in the patient's symptoms.
Magnesium oxide, 250 mg three times a day, was added, each dose being taken together with the acamprosate. […] The effect was definite: movements worsened when magnesium oxide was stopped and improved when it was restarted. After a month on magnesium, the dosage of acamprosate was increased to 666 mg four times a day, with 250 mg of magnesium oxide given together with each dose. […] The only residual sign of TD was a mild degree of involuntary movement of the hands.

[4] = system: person two with long-standing TD; experiment: Case Report 1: clinical observation of TD with blepharospasm; format: in vivo, human; settings: Case 1; for effect on involuntary movements of TD: clinical observation, acamprosate 333 mg four times a day; for cognitive function (energy, attention, concentration): subjective and objective
Protocol: Palliative treatment with alprazolam (an anxiolytic and GABA agonist via modulation; dosage 0.25 mg four times a day) and trihexyphenidyl (an anticholinergic antiparkinson drug that inhibits dopamine re-uptake at synapses; dosage 2 mg twice a day) was prescribed by another physician.
Initially, their other medications were maintained unchanged.
Nimodipine was discontinued, and the patient was begun on memantine at a dosage of 10 mg twice a day.
For the following 10 days they added 250 mg three times a day of chelated magnesium.

[5] = system: person two with chronic schizophrenia and severe tardive dyskinesia; experiment: Case Report 6: clinical observation of severe TD with blepharospasm in chronic schizophrenia; format: in vivo; settings: Case 6
Description: A corresponding physician the United Kingdom recently reported to me on the treatment of a person with chronic schizophrenia and severe tardive dyskinesia. As in Case 1, the patient's involuntary movements included severe blepharospasm. In addition, they had involuntary rhythmic peri-oral movements, and chorea-like movements of both hands, like the patient in Case 2. They had no cognitive complaints, nor were cognitive abnormalities noted on routine psychiatric examination.
The patient had developed symptoms of paranoid schizophrenia in 1991. The symptoms of psychosis included auditory hallucinations, bizarre delusions, and persecutory fears. […] They were subsequently hospitalized and stabilized on fluphenthixol decanoate, a depot neuroleptic given by intramuscular injections. Symptoms of TD developed in November, 1994, after 28 months of neuroleptic therapy. […] Beginning in October 1997 the patient was treated for their schizophrenia with 2 mg of risperidone alone. On this modest dose of an atypical neuroleptic, they had severe symptoms of TD for which they eagerly sought treatment.
Memantine was started on November 28, 1997 at a dose of 5 mg per day, increased after 7 days to 5 mg twice a day, and after another 7 days to 5 mg three times a day. […] Further dosage increases were attempted to completely abolish the involuntary movements. The maximum dose attainable without side effects was 10 mg twice a day; above that level the patient had complaints of dizziness. That dose of memantine was maintained through May of […].
In May 1998 the patient was started on acamprosate, in pursuit of complete elimination of their involuntary movements. Initially, acamprosate 333 mg three times a day was added to memantine 10 mg twice a day.

[6] = system: person two with long-standing TD; experiment: Paced Auditory Serial Addition Test (PASAT) (Case 1); format: in vivo, human; settings: lower score better
Description: as §1, §2

[7] = system: person two with long-standing TD; experiment: Motor Functions: Grooved Functions (Case 1); format: in vivo, human; settings: ON drug, lower score better; for Grooved Functions sec. DH: DH = right
Description: as §2

[8] = system: person two with long-standing TD; experiment: Choice Reaction Time (Case 1); format: in vivo, human; settings: lower score better
Description: as §1, §2

[9] = system: person with extremely severe tardive dyskinesia and dystonia; experiment: Case Report 4: clinical course and physician examination; format: in vivo, human; settings: Case 4
[10] = system: person two with long-standing TD; experiment: Trail Making Test, Trails A (Case 1); format: in vivo, human; settings: lower score better
Description: as §1, §2

SMILES: CC(=O)NCCCS(=O)(=O)O [acamprosate, calcium N-acetylhomotaurinate]
- Simple Reaction Time 500 Green ([1]; ON drug): 286 ms
- Simple Reaction Time 500 Red ([1]; ON drug): 272 ms
- Simple Reaction Time 1500 Green ([1]; ON drug): 261 ms
- Simple Reaction Time 1500 Red ([1]; ON drug): 264 ms
- Trails B Errors [2]: 0
- Trails B Seconds [2]: 43″
- persistent symptoms on acamprosate after memantine discontinued ([3]; 666 mg three times a day): mild choreatic movements on the hands, mild involuntary movements of the tongue and jaw
- effect on involuntary movements of TD [3]: chorea and tongue-biting stopped completely
- cognitive symptoms / memory [3]: memory improved
- involuntary movements two months after reinstitution [4]: absent except for very mild movements during times of stress
- time to recovery of energy, stamina, concentration and memory after re-instituting treatment [4]: Within two days
- time able to read a book ([4]; 333 mg four times a day): over an hour at a time
- effect on involuntary movements of TD ([4]; memantine 10 mg twice a day): became imperceptible
- fatigue ([4]; on the acamprosate regime): significantly decreased
- cognitive function (energy, attention, concentration) [4]: improved significantly
- peri-oral movements ([5]; 333 mg three times a day added to memantine 10 mg twice a day): peri-oral movements were eliminated
- involuntary movements on acamprosate alone ([5]; after memantine discontinued): continued free of involuntary movements
- PASAT 1.2 sec ISI errors ([6]; ON drug): 13/49
- PASAT 1.6 sec ISI errors ([6]; ON drug): 11/49
- PASAT 2.0 sec ISI errors ([6]; ON drug): 1/49
- PASAT 2.4 sec ISI errors ([6]; ON drug): 4/49
- Grooved Functions sec. DH [7]: DH = 61″
- Grooved Functions sec. NDH [7]: NDH = 70″
- Choice Reaction Time 500 Green ([8]; ON drug): 382 ms
- Choice Reaction Time 500 Red ([8]; ON drug): 426 ms
- Choice Reaction Time 1500 Green ([8]; ON drug): 408 ms
- Choice Reaction Time 1500 Red ([8]; ON drug): 379 ms
- time after resuming drug until previous level of benefit regained [9]: 72 h
- time off drug until movement disorder returned to baseline [9]: 24 h
- Trails A Errors ([10]; ON drug): 0
- Trails A Seconds ([10]; ON drug): 20″

SMILES: CC12CC3CC(C)(C1)CC(N)(C3)C2 [memantine]
- Simple Reaction Time 500 Green [1]: 284 ms
- Simple Reaction Time 500 Red [1]: 266 ms
- Simple Reaction Time 1500 Green [1]: 212 ms
- Simple Reaction Time 1500 Red [1]: 224 ms
- Trails B Errors [2]: 0
- Trails B Seconds [2]: 118″
- effect on involuntary movements of TD [3]: improved, but continued at a mild-to-moderate level
- cognitive symptoms / memory [3]: did not improve
- side effects at reduced dose ([4]; 5 mg three times a day): without perceptible side effects
- time to reduction of involuntary movements ([4]; 10 mg twice a day): ≤ 24 h
- effect on involuntary movements of TD ([4]; memantine 10 mg twice a day): substantially greater degree than had been observed with nimodipine
- adverse effects ([4]; nimodipine 30 mg four times a day, memantine 10 mg twice a day): a sense of mild intoxication
- cognitive function (energy, attention, concentration) [4]: improved energy, attention, and concentration
- maximum dose attainable without side effects [5]: 10 mg twice a day
- involuntary movements ([5]; 5 mg three times a day): virtually no involuntary movements noted at the peak of a given dose
- blepharospasm after first two weeks ([5]; 5 mg twice a day): marked improvement in blepharospasm
- involuntary movements after 6 months of treatment ([5]; 10 mg twice a day): no blepharospasm or limb chorea, and only mild peri-oral movements
- complaints above maximum tolerated dose ([5]; above 10 mg twice a day): dizziness
- PASAT 1.2 sec ISI errors [6]: 28/49
- PASAT 1.6 sec ISI errors [6]: 21/49
- PASAT 2.0 sec ISI errors [6]: 17/49
- PASAT 2.4 sec ISI errors [6]: 13/49
- Grooved Functions sec. DH [7]: DH = 71″
- Grooved Functions sec. NDH [7]: NDH = 70″
- Choice Reaction Time 500 Green [8]: 362 ms
- Choice Reaction Time 500 Red [8]: 421 ms
- Choice Reaction Time 1500 Green [8]: 365 ms
- Choice Reaction Time 1500 Red [8]: 422 ms
- effect on movement disorder ([9]; memantine 10 mg three times a day added to acamprosate and magnesium sulfate): aggravated their movement disorder
- Trails A Errors [10]: 0
- Trails A Seconds [10]: 28″
